In patent US11566028B2, “Bicyclic heterocycles as FGFR inhibitors” (Incyte Corporation, priority 2019, dated 2023):
Read-outs that look alike come from different tables or passages of the source.

Assays:
Type in all cases: biochemical
FGFR4 = FGFR4 (Homo sapiens (Human), UniProt P22455); test: FGFR Enzymatic Assay (FRET peptide phosphorylation), FGFR4; conditions: pre-incubated for 4 hours
[1] = biological target: wild-type un-phosphorylated FGFR3 protein (Homo sapiens (Human), UniProt P22607); test: FGFR Enzymatic Assay (FRET peptide phosphorylation), FGFR3; conditions: pre-incubated for 4 hours
FGFR1 = FGFR1 (Homo sapiens (Human), UniProt P11362); test: FGFR Enzymatic Assay (FRET peptide phosphorylation), FGFR1; conditions: pre-incubated for 4 hours
FGFR2 = FGFR2 (Homo sapiens (Human), UniProt P21802); test: FGFR Enzymatic Assay (FRET peptide phosphorylation), FGFR2
FGFR2, sequence (P21802 22-821): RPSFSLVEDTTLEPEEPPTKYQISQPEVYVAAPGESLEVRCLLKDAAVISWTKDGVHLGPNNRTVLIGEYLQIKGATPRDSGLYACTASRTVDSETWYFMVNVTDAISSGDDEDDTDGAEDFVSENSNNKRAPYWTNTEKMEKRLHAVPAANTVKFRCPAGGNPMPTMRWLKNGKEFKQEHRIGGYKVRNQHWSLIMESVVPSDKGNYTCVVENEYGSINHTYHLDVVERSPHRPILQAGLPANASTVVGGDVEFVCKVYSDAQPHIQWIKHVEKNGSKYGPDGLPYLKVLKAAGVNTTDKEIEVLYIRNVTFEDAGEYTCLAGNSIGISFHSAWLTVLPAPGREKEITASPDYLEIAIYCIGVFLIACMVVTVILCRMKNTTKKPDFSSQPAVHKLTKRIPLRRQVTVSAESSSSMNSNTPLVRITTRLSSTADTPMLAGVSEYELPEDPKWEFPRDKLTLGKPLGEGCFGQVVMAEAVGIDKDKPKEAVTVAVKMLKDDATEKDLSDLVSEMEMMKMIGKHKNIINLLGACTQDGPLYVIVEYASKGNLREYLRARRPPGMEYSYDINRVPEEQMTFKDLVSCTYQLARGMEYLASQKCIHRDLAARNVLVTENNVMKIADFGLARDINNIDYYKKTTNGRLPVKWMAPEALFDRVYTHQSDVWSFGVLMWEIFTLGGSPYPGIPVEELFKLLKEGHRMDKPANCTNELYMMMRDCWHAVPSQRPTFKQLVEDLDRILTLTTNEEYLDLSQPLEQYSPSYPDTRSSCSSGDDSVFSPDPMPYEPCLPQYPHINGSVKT

FGFR4, sequence (P22455 22-802): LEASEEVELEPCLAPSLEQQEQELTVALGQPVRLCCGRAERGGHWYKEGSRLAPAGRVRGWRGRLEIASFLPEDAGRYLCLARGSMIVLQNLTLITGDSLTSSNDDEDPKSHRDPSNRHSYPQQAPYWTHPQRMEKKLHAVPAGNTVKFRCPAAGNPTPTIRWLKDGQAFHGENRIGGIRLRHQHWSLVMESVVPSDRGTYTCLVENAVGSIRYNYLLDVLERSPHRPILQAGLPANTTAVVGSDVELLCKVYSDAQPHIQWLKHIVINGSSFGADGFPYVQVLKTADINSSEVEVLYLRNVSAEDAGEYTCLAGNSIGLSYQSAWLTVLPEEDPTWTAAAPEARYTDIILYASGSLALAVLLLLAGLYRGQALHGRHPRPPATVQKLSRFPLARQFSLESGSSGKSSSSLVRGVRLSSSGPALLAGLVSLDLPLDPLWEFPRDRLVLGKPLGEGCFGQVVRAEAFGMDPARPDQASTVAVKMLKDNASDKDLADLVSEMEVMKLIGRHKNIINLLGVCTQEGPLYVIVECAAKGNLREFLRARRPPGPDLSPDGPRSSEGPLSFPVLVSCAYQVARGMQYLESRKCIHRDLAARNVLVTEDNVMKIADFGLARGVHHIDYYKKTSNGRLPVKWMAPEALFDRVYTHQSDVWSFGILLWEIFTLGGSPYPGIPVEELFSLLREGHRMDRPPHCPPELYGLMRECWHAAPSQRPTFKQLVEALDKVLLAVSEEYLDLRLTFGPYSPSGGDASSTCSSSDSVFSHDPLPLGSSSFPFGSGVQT
FGFR1, sequence (P11362 22-822): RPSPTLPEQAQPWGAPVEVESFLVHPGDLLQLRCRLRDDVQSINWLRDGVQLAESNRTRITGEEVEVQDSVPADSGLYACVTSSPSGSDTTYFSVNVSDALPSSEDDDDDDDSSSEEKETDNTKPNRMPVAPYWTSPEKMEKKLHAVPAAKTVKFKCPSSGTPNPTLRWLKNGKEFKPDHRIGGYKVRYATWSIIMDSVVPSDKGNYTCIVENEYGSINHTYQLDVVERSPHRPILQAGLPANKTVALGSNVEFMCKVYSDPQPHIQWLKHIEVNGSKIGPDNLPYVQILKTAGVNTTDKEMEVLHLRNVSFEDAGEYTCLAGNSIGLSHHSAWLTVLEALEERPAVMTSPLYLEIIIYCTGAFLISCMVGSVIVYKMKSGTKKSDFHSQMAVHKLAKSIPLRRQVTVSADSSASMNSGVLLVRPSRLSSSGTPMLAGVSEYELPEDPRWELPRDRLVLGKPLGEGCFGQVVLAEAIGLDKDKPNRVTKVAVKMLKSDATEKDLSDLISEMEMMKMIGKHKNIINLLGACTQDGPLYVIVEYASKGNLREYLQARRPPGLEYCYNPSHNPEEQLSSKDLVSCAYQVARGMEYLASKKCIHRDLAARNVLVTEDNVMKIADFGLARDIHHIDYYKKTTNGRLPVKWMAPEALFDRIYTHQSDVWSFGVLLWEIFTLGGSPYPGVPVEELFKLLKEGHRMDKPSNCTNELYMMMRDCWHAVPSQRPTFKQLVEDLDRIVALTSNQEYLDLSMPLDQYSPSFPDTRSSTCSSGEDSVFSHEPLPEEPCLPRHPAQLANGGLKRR
wild-type un-phosphorylated FGFR3 protein, sequence (P22607 23-806): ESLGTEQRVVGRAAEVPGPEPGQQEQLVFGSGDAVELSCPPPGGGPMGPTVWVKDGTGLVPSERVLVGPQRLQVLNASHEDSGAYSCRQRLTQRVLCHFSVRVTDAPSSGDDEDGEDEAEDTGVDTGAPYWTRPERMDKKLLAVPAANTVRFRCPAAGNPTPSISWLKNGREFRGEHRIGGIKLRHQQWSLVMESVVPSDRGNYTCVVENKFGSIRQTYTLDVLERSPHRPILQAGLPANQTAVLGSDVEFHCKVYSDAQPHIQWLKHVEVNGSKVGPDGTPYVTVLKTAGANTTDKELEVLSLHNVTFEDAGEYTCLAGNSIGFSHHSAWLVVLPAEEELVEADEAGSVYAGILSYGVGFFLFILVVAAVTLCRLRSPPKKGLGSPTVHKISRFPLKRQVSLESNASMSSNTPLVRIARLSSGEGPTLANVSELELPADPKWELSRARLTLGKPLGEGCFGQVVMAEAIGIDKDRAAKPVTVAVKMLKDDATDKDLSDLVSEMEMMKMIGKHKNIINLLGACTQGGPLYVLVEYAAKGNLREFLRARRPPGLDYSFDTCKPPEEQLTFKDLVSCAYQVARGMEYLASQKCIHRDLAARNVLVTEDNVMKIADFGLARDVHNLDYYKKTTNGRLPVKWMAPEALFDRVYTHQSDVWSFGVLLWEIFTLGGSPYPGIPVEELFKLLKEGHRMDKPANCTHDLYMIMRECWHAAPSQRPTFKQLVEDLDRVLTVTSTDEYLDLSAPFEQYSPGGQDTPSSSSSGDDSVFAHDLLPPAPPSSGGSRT

| Structure (SMILES) | IC50 (FGFR4) [µM] | IC50 [1] [µM] | IC50 (FGFR1) [µM] | IC50 (FGFR2; pre-incubated for 4 hours) [µM] | IC50 (FGFR2) [µM] |
| --- | --- | --- | --- | --- | --- |
| CCS(=O)(=O)c1cc(F)c(F)c(-c2cnn3cc(-c4cnn(C)c4)c(N[C@H]4CCOC4)nc23)c1 [Example 45, (S)-3-(5-(Ethylsulfonyl)-2,3-difluorophenyl)-6-(1-methyl-1H-pyrazol-4-yl)-N-(tetrahydrofuran-3-yl)pyrazolo[1,5-a]pyrimidin-5-amine] | ≥ 0.2 |  | 0.01 to 0.03 |  |  |
| [2H]C([2H])([2H])NC(=O)c1cncc(-c2cnn3cc(-c4cnn(C(C)C)c4)c(O[C@H]4CCOC4)nc23)c1 [Example 63, (S)-5-(6-(1-Isopropyl-1H-pyrazol-4-yl)-5-((tetrahydrofuran-3-yl)oxy)pyrazolo[1,5-a]pyrimidin-3-yl)-N-(methyl-d3)nicotinamide] | 0.03 to 0.2 |  |  |  |  |
| CNC(=O)c1cc(C)c(F)c(-c2cnn3cc(-c4cnn(C)c4)c(O[C@H]4CCOC4)nc23)c1 [Example 5, (S)-4-Fluoro-N,3-dimethyl-5-(6-(1-methyl-1H-pyrazol-4-yl)-5-((tetrahydrofuran-3-yl)oxy)pyrazolo[1,5-a]pyrimidin-3-yl)benzamide] |  | < 0.01 | < 0.01 | < 0.01 |  |
| CNC(=O)c1cc(F)c(F)c(-c2cnn3cc(-c4ccn(C(C)C)c(=O)c4)c(N[C@H]4CCOC4)nc23)c1 [Example 56, (S)-3,4-Difluoro-5-(6-(1-isopropyl-2-oxo-1,2-dihydropyridin-4-y1)-5-((tetrahydrofuran-3-yl)amino)pyrazolo[1,5-a]pyrimidin-3-y1)-N-methylbenzamide] |  | < 0.01 | 0.01 to 0.03 |  | < 0.01 |
| CNC(=O)c1cc(C)c(F)c(-c2cnn3cc(-c4cnn(C5CCS(=O)(=O)C5)c4)c(N[C@H]4CCOC4)nc23)c1 (stereo partly drawn) [Example 38, 3-(6-(1-(1,1-Dioxidotetrahydrothiophen-3-y1)-1H-pyrazol-4-y1)-5-(((S)-tetrahydrofuran-3-yl)amino)pyrazolo[1,5-a]pyrimidin-3-y1)-4-fluoro-N,5-dimethylbenzamide] |  | < 0.01 | 0.03 to 0.2 |  | < 0.01 |
| CNC(=O)c1cc(F)c(F)c(-c2cnn3cc(-c4ccc(N5CCN(C)CC5)nc4)c(O[C@H]4CCOC4)nc23)c1 [Example 13, (S)-3,4-Difluoro-N-methy1-5-(6-(6-(4-methylpiperazin-1-yl)pyridin-3-y1)-5-((tetrahydrofuran-3-yl)oxy)pyrazolo[1,5-a]pyrimidin-3-yl)benzamide] |  | < 0.01 | 0.01 to 0.03 | < 0.01 |  |
| CNC(=O)c1cncc(-c2cnn3cc(-c4ccc(N5CCN(C)CC5)cc4)c(O[C@H]4CCOC4)nc23)c1 [Example 18, (S)—N-Methyl-5-(6-(4-(4-methylpiperazin-1-yl)phenyl)-5-((tetrahydrofuran-3-yl)oxy)pyrazolo[1,5-a]pyrimidin-3-yl)nicotinamide] |  | < 0.01 | 0.03 to 0.2 | < 0.01 |  |
| CNC(=O)c1cc(C)c(F)c(-c2cnn3cc(-c4cnn(CC(=O)N(C)C)c4)c(N[C@H]4CCOC4)nc23)c1 [Example 39, (S)-3-(6-(1-(2-(Dimethylamino)-2-oxoethyl)-1H-pyrazol-4-y1)-5-((tetrahydrofuran-3-yl)amino)pyrazolo[1,5-a]pyrimidin-3-y1)-4-fluoro-N,5-dimethylbenzamide] |  | < 0.01 | 0.01 to 0.03 |  | < 0.01 |
| CNC(=O)c1cc(C)c(F)c(-c2cnn3cc(-c4cnn(CCO)c4)c(N[C@H]4CCOC4)nc23)c1 [Example 36, (S)-4-Fluoro-3-(6-(1-(2-hydroxyethyl)-1H-pyrazol-4-yl)-5-((tetrahydrofuran-3-yl)amino)pyrazolo[1,5-a]pyrimidin-3-yl)-N,5-dimethylbenzamide] |  | < 0.01 | 0.03 to 0.2 | < 0.01 |  |
| CNC(=O)c1cc(F)c(F)c(-c2cnn3cc(-c4cnn(CC5CCOCC5)c4)c(N[C@H]4CCOC4)nc23)c1 [Example 54, (S)-3,4-Difluoro-N-methyl-5-(6-(1-((tetrahydro-2H-pyran-4-yl)methyl)-1H-pyrazol-4-y1)-5-((tetrahydrofuran-3-yl)amino)pyrazolo[1,5-a]pyrimidin-3-yl)benzamide] |  | < 0.01 | < 0.01 |  | < 0.01 |

Further lines, with some results ahead:

| IC50 (FGFR4) [µM] | IC50 [1] [µM] | IC50 (FGFR1) [µM] | IC50 (FGFR2; pre-incubated for 4 hours) [µM] | Structure (SMILES) | IC50 (FGFR2) [µM] |
| --- | --- | --- | --- | --- | --- |
| ≥ 0.2 | < 0.01 | 0.03 to 0.2 | < 0.01 | CNC(=O)c1cncc(-c2cnn3cc(-c4cnn(C)n4)c(N[C@H]4CCOC4)nc23)c1 [Example 60, (S)—N-Methyl-5-(6-(2-methyl-2H-1,2,3-triazol-4-yl)-5-((tetrahydrofuran-3-yl)amino)pyrazolo[1,5-a]pyrimidin-3-yl)nicotinamide] |  |
| ≥ 0.2 | < 0.01 | 0.01 to 0.03 | < 0.01 | Cn1cc(-c2cn3ncc(-c4cccc(-c5cc[nH]n5)c4)c3nc2O[C@H]2CCOC2)cn1 [Example 51, (S)-3-(3-(1H-Pyrazol-3-yl)phenyl)-6-(1-methyl-1H-pyrazol-4-yl)-5-((tetrahydrofuran-3-yl)oxy)pyrazolo[1,5-a]pyrimidine] |  |
| ≥ 0.2 |  | 0.01 to 0.03 | < 0.01 | CCS(=O)(=O)c1cc(F)c(F)c(-c2cnn3cc(-c4cnn(C)c4)c(O[C@H]4CCOC4)nc23)c1 [Example 46, (S)-3-(5-(Ethylsulfonyl)-2,3-difluorophenyl)-6-(1-methyl-1H-pyrazol-4-yl)-5-((tetrahydrofuran-3-yl)oxy)pyrazolo[1,5-a]pyrimidine] |  |
| ≥ 0.2 |  | 0.03 to 0.2 | < 0.01 | CNC(=O)c1cncc(-c2cnn3cc(-c4cnn(C)c4)c(OC4CCOC4)nc23)c1 (racemic) [Example 3, N-Methyl-5-(6-(1-methyl-1H-pyrazol-4-yl)-5-((tetrahydrofuran-3-yl)oxy)pyrazolo[1,5-a]pyrimidin-3-yl)nicotinamide] |  |
| ≥ 0.2 |  | 0.03 to 0.2 | 0.01 to 0.03 | CC(C)NC(=O)c1cncc(-c2cnn3cc(-c4ccn(C)n4)c(N[C@H]4CCOC4)nc23)c1 [Example 62, (S)—N-Isopropyl-5-(6-(1-methyl-1H-pyrazol-3-yl)-5-((tetrahydrofuran-3-yl)amino)pyrazolo[1,5-a]pyrimidin-3-yl)nicotinamide] |  |
|  | < 0.01 | 0.01 to 0.03 | < 0.01 | CCn1cc(-c2cn3ncc(-c4cc(C(=O)NC)cc(C(F)F)c4F)c3nc2N[C@H]2CCOC2)cn1 [Example 48, (S)-3-(Difluoromethyl)-5-(6-(1-ethyl-1H-pyrazol-4-yl)-5-((tetrahydrofuran-3-yl)amino)pyrazolo[1,5-a]pyrimidin-3-yl)-4-fluoro-N-methylbenzamide] |  |
|  | < 0.01 | 0.03 to 0.2 | < 0.01 | CNC(=O)c1cc(-c2cnn3cc(-c4cccnc4)c(O[C@H]4CCOC4)nc23)c(F)c(C(F)F)c1 [Example 23, (S)-3-(Difluoromethyl)-4-fluoro-N-methyl-5-(6-(pyridin-3-yl)-5-((tetrahydrofuran-3-yl)oxy)pyrazolo[1,5-a]pyrimidin-3-yl)benzamide] |  |
|  | < 0.01 | 0.03 to 0.2 | < 0.01 | CNC(=O)c1ccc(F)c(-c2cnn3cc(-c4cnn(C)c4)c(OC4CCOC4)nc23)c1 (racemic) [Example 2, 4-Fluoro-N-methyl-3-(6-(1-methyl-1H-pyrazol-4-yl)-5-((tetrahydrofuran-3-yl)oxy)pyrazolo[1,5-a]pyrimidin-3-yl)benzamide] |  |
|  | < 0.01 | ≥ 0.2 | 0.01 to 0.03 | CNC(=O)c1cc(C#N)cc(-c2cnn3cc(-c4ccc(C)nc4)c(O[C@H]4CCOC4)nc23)c1 [Example 28, (S)-3-Cyano-N-methyl-5-(6-(6-methylpyridin-3-yl)-5-((tetrahydrofuran-3-yl)oxy)pyrazolo[1,5-a]pyrimidin-3-yl)benzamide] |  |
|  | < 0.01 | 0.03 to 0.2 | < 0.01 | CNC(=O)c1cccc(-c2cnn3cc(-c4cnn(C)c4)c(OC4CCOC4)nc23)c1 (racemic) [Example 1, N-Methyl-3-(6-(1-methyl-1H-pyrazol-4-yl)-5-((tetrahydrofuran-3-yl)oxy)pyrazolo[1,5-a]pyrimidin-3-yl)benzamide] |  |
|  | < 0.01 | 0.03 to 0.2 | < 0.01 | CNC(=O)c1cc(C)c(F)c(-c2cnn3cc(-c4cnc(N5CCN(C)CC5)o4)c(N[C@H]4CCOC4)nc23)c1 [Example 70, (S)-4-Fluoro-N,3-dimethyl-5-(6-(2-(4-methylpiperazin-1-yl)oxazol-5-yl)-5-((tetrahydrofuran-3-yl)amino)pyrazolo[1,5-a]pyrimidin-3-yl)benzamide] |  |
|  | < 0.01 | 0.03 to 0.2 | < 0.01 | CNC(=O)c1cc(C)c(F)c(-c2cnn3cc(-c4cnn(C)c4)c(N[C@H]4CCOC4)nc23)c1 [Example 16, (S)-4-Fluoro-N,3-dimethyl-5-(6-(1-methyl-1H-pyrazol-4-yl)-5-((tetrahydrofuran-3-yl)amino)pyrazolo[1,5-a]pyrimidin-3-yl)benzamide] |  |
|  | < 0.01 | 0.03 to 0.2 | < 0.01 | CNC(=O)c1cncc(-c2cnn3cc(-c4ccc(N5CCN(C)CC5)nc4)c(O[C@H]4CCOC4)nc23)c1 [Example 19, (S)-N-Methyl-5-(6-(6-(4-methylpiperazin-1-yl)pyridin-3-yl)-5-((tetrahydrofuran-3-yl)oxy)pyrazolo[1,5-a]pyrimidin-3-yl)nicotinamide] |  |
|  | < 0.01 | 0.03 to 0.2 | < 0.01 | CNC(=O)c1cc(-c2cnn3cc(-c4ccc(C(C)(C)O)nc4)c(O[C@H]4CCOC4)nc23)c(F)c(C(F)F)c1 [Example 25, (S)-3-(Difluoromethyl)-4-fluoro-5-(6-(6-(2-hydroxypropan-2-yl)pyridin-3-yl)-5-((tetrahydrofuran-3-yl)oxy)pyrazolo[1,5-a]pyrimidin-3-yl)-N-methylbenzamide] |  |
|  | < 0.01 | 0.01 to 0.03 | < 0.01 | CNC(=O)c1cc(O)c(F)c(-c2cnn3cc(-c4cnn(C)c4)c(O[C@H]4CCOC4)nc23)c1 [Example 31, (S)-4-Fluoro-3-hydroxy-N-methyl-5-(6-(1-methyl-1H-pyrazol-4-yl)-5-((tetrahydrofuran-3-yl)oxy)pyrazolo[1,5-a]pyrimidin-3-yl)benzamide] |  |
